Laboratory results taken from PubChem BioAssay (NCI).
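Values below derive from 48-hour exposures of cells grown in 96-well plates, with endpoints linearly interpolated between the two concentrations bracketing the appropriate inhibition level. TGI: total growth inhibition.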

Columns and labels:
Assay in all cases: NCI anticancer screen, dose series, 48 h
[1] = test system: 786-0 renal
[2] = test system: A498 renal
[3] = test system: A549 NSCLC
[4] = test system: CCRF-CEM leukemia
[5] = test system: DU-145 prostate
[6] = test system: EKVX NSCLC
[7] = test system: HOP-92 NSCLC
[8] = test system: IGROV1 ovarian
[9] = test system: NCI-H226 lung
[10] = test system: NCI-H460 lung
[11] = test system: OVCAR-3 ovarian
[12] = test system: OVCAR-8 ovarian
[13] = test system: SF-539 CNS
[14] = test system: SK-MEL-2 melanoma
[15] = test system: SK-MEL-28 melanoma
[16] = test system: SK-MEL-5 melanoma
[17] = test system: SNB-75 CNS
[18] = test system: TK-10 renal
[19] = test system: UACC-257 melanoma

Structure (SMILES) | TGI [1] [µM] | TGI [2] [µM] | TGI [3] [µM] | TGI [4] [µM] | TGI [5] [µM] | TGI [6] [µM] | TGI [7] [µM] | TGI [8] [µM] | TGI [9] [µM] | TGI [10] [µM] | TGI [11] [µM] | TGI [12] [µM] | TGI [13] [µM] | TGI [14] [µM] | TGI [15] [µM] | TGI [16] [µM] | TGI [17] [µM] | TGI [18] [µM] | TGI [19] [µM]
COc1ccc2c(c1)c(=O)c1c(NCCCN(C)CCCNc3ccc4c(=O)n(CCN(C)C)c(=O)n5c6ccc(OC)cc6c(=O)c3c45)ccc3c(=O)n(CCN(C)C)c(=O)n2c31 | 1.48 | 3.39 | 1.26 | 0.049 | 1.18 | 1.3 | 0.941 | 0.584 | 0.409 | 0.209 | 2.56 | 2.65 | 1.95 | 2.44 | 2.32 | 0.813 | 0.216 | 6.6 | 2.11
COC(=O)c1ccc(CCC2=CC(=O)C(Br)=CC2=O)cc1 | 35.2 | 36.5 | 36.9 | 0.887 | 32 | 38.7 | 11.9 | 28.7 | 30.5 | 34.5 | 31.4 | 32 | 31.8 | 31.9 | 31.1 | 24.6 | 26.9 | 31.1 | 29
O=S(=O)(O)c1ccc2c(N=Nc3ccccc3)c(O)c(S(=O)(=O)O)cc2c1 | > 100 | > 100 | > 100 | > 100 | > 100 | > 100 | > 100 | > 100 | > 100 | > 100 | > 100 | > 100 | > 100 | > 100 | > 100 | > 100 | > 100 | > 100 | > 100
COc1cc(CCNC2=CC(=O)c3cccnc3C2=O)ccc1O | 3.67 | 7.6 | 3.27 | 25.9 | 3.11 | 11.5 | 19 | 4.3 | 3.53 | 2.65 | 5.51 | 12 | 3.04 | 3.46 | 2.56 | 1.08 | 2.06 | 30.5 | 2.18
CC(=O)c1cc2c(s1)C(=O)c1scc(C(C)=O)c1C2=O | 1.9 | 4 | 2.71 | 0.59 | 2.86 | 1.34 | 0.93 | 1.37 | 3.57 | 1.27 | 0.271 | 0.63 | 2.44 | 1.3 | 1.59 | 1.53 | 2.65 | 9.9 | 0.544
O=C1C(=Cc2ccco2)C(=O)C2CCCCC12 (stereo not drawn) | > 100 | > 100 | > 100 | > 100 | > 100 | > 100 | > 100 | > 100 | > 100 | > 100 | > 100 | > 100 | > 100 | > 100 | > 100 | > 100 | > 100 | > 100 | > 100
O=C1c2n[nH]nc2C(=O)c2n[nH]nc21 | > 100 | > 100 | > 100 | > 100 | > 100 | > 100 | > 100 | > 100 | > 100 | > 100 | > 100 | > 100 | > 100 | > 100 | > 100 | > 100 | > 100 | > 100 | > 100
c1ccc2c(c1)CCN(C1=NCCO1)C2 | > 10 | > 10 | > 10 | > 10 | > 10 | > 10 | > 10 | > 10 | > 10 | > 10 | > 10 | > 10 | > 10 | > 10 | > 10 | > 10 | > 10 | > 10 | > 10
CCOP(=O)(CC1CC(O)(CNc2cc(Cl)nc(N)n2)C1)OCC (stereo not drawn) | > 100 | > 100 | > 100 | > 100 | > 100 | > 100 | > 100 | > 100 | > 100 | > 100 | > 100 | > 100 | > 100 | > 100 | > 100 | > 100 | > 100 | > 100 | > 100
CC(/C=N/N(C)C1=NCCCCN1)=N/N(C)C1=NCCCCN1 | > 100 | > 100 | > 100 | > 100 | > 100 | > 100 | > 100 | > 100 | > 100 | > 100 | > 100 | > 100 | > 100 | > 100 | > 100 | > 100 | > 100 | > 100 | > 100
CCN(CC)c1ccc2c(c1)Oc1ccc(N(C(C)=O)c3ccccc3)cc1C21OC(=O)c2ccccc21 (stereo not drawn) | > 100 | > 100 | > 100 | > 100 | > 100 | > 100 | > 100 | > 100 | > 100 | > 100 | > 100 | > 100 | > 100 | > 100 | > 100 | > 100 | > 100 | > 100 | > 100
O=C1C=C(N2CCCC2)C(=O)c2c(O)ccc(O)c21 | > 10 | > 10 | > 10 | 5.19 | > 10 | > 10 | > 10 | > 10 | > 10 | > 10 | > 10 | > 10 | > 10 | > 10 | > 10 | > 10 | > 10 | > 10 | > 10
